Reference: publication PMC10692721, “Drug discovery for heart failure targeting myosin-binding protein C” (The Journal of Biological Chemistry, 2023)

Assays:
[1] = test system: FMAL-actin plus TMR-cC0-C2; test: Selleck library HTS, 473 nm excitation (FLT of FMAL-actin with TMR-cC0-C2, FLT-FRET); assay type: binding, human; details: for 473-nm Δτ, Repeat 1 / 473-nm Δτ, Repeat 2: initial screen, 30 μM compound; for 473-nm z-score (based on avg Δτ): robust z-score, hit threshold ±4, 30 μM compound
Procedure: (§1) Fluorescence lifetime (FLT) measurements were acquired using a high-throughput FLT plate reader (Fluorescence Innovations, Inc) ([14], [27]), provided by Photonic Pharma LLC. […] The observed waveforms were analyzed as described previously ([15], [28]).
(§2) In total, 50 nl of each solution was dispensed in DMSO using an automated Echo 550 acoustic liquid dispenser (Labcyte). Compounds were formatted into the assay plates, at a final concentration of 30 μM, with the first two and second to last columns loaded with DMSO only (compound-free controls). In the final column, 30 μM of suramin was loaded as a positive control (tool compound). These assay plates were then heat-sealed using a PlateLoc Thermal Microplate Sealer (Agilent Technologies) and stored at −20 °C. Before screening, compound plates were equilibrated to room temperature (∼25 °C). […] Plates were incubated at room temperature for 60 min before recording the data with the fluorescence lifetime plate reader.
After fitting the waveforms with a single exponential decay to quantify donor FLT, the change in FLT (Δτ) was computed by performing a moving median subtraction in the order the plate was scanned with a window size of half a plate row […]. The reasons for this are twofold. Firstly, plate gradients are often observed due to the heating of the digitizer during acquisition.
To account for the necessity to correct for plate gradients in the computation of E, the median τDMSO prior to the application of the moving median correction was added to each well’s Δτ value to recover a rescaled value of τ.

[2] = test system: TMR-cC0-C2 (C0-C2 fragment of human cMyBP-C); test: FLT-TMR concentration-response assay (FLT of TMR on cC0-C2, no actin); assay type: binding; details: 60 μM compound
Procedure: Compounds identified as initial hits were further examined to determine the concentration–response curves for seven conditions ([1]): FMAL-actin alone identified actin-binding compounds that alter the FLT of FMAL-actin ([2]).
as §1
The primary hits were dissolved in DMSO to make a 10 mM stock solution, which was serially diluted in 96-well mother plates. Hits were screened at eight concentrations (0.5–100 μM). […] Compounds (1 μl) were transferred from the mother plates into 384-well plates using a Mosquito HV liquid handler (TTP Labtech Ltd, Hertfordshire, UK). The same procedure of dispensing as for the pilot screening was applied in the concentration-response assays. Concentration dependence of the FLT-FRET (E/EDMSO) or FLT-TMR (Δτ) change data was fit to a Hill equation only under certain conditions to help guide the eye (Fig. 4).

TMR-cC0-C2 = test: Selleck library HTS, 532 nm excitation (FLT of TMR-cC0-C2 in presence of FMAL-actin); assay type: binding, human; details: for 532-nm Δτ, Repeat 1 / 532-nm Δτ, Repeat 2: initial screen, 30 μM compound; for 532-nm z-score (based on avg Δτ): robust z-score, hit threshold ±4, 30 μM compound
Procedure: as §1, §2
Hits that exceeded the z-score hit criteria in the donor-only screen were excluded from consideration. To remove compounds with confounding fluorescence properties, a similarity index (SI, specifically the cosine distance, Equation 5) was computed using data from the SUPR instrument by comparing a region (500–540 nm) of the donor-only spectrum (I^(a)) for each well to that of the plate-wide average DMSO spectrum (I^(b)) in the same wavelength band ([29]). Compounds that exceeded an SI robust z-score of 4 were deemed likely fluorescent compounds and removed from consideration.(5) SI=1−∑Ii(a).Ii(b)/∑Ii(a).Ii(a)∑Ii(b).Ii(b)

Compound | 473-nm Δτ, Repeat 1 [1] [ns] | 473-nm Δτ, Repeat 2 [1] [ns] | 473-nm z-score (based on avg Δτ) [1] | cC0-C2 FLT change (% change from DMSO, FLT of TMR-MyBP-C) [2] [%] | 532-nm Δτ, Repeat 1 (TMR-cC0-C2) [ns] | 532-nm Δτ, Repeat 2 (TMR-cC0-C2) [ns] | 532-nm z-score (based on avg Δτ) (TMR-cC0-C2)
CCCCCCCCCCCCCCCC(=O)O[C@@H]1[C@@H](O)[C@@H](O)[C@@H]([C@H](NC(=O)[C@@H]2C[C@@H](CCC)CN2C)[C@H](C)Cl)O[C@@H]1SC.Cl [Clindamycin palmitate HCl] | -0.304 | -0.358 | -18.47 | −12.7 | -0.075 | -0.094 | -5.12
Heparin sodium | 0.440 | 0.363 | 22.49 |  | -0.052 | -0.051 | -3.09
O=c1cc(-c2ccc(O)c(O)c2)oc2cc(O)cc(O)c12 [Luteolin] | -0.309 | -0.214 | -14.58 |  | -0.277 | -0.302 | -17.63
CN1CCCN=C1/C=C/c1cccs1 [Pyrantel pamoate] | 0.313 | 0.250 | 15.79 |  | -0.043 | -0.100 | -4.32
Nc1ccc2cc3ccc(N)cc3nc2c1 [Proflavine hemisulfate] | 0.430 | 0.337 | 21.48 |  | -0.016 | -0.080 | -2.91
O=C(O)c1cc(/N=N/c2ccc(O)c(C(=O)O)c2)ccc1O [Olsalazine Sodium] | 0.202 | 0.096 | 8.38 |  | -0.057 | -0.123 | -5.46
COc1cc2nc(N3CCN(C(=O)C4COc5ccccc5O4)CC3)nc(N)c2cc1OC (stereo not shown) [Doxazosin] | -0.266 | -0.231 | -13.87 |  | 0.125 | 0.126 | 7.70
C[C@H](CCC(=O)O)[C@H]1CC[C@H]2[C@@H]3C[C@H](O)[C@@H]4C[C@H](O)CC[C@]4(C)[C@H]3CC[C@]12C [Hyodeoxycholic acid (HDCA), Hyodeoxycholic acid] | 0.111 | 0.072 | 5.17 |  | -0.021 | -0.120 | -4.27
C=CC1=C(C)c2cc3[nH]c(cc4nc(cc5[nH]c(cc1n2)c(C)c5CCC(=O)O)C(CCC(=O)O)=C4C)c(C)c3C=C [Protoporphyrin IX] | 0.144 | 0.076 | 6.21 |  | 0.067 | 0.016 | 2.58
CCC(=O)c1c(O)cc(O)cc1O [Flopropione] | -0.335 | -0.210 | -15.21 |  | -0.062 | -0.073 | -4.10
Cc1ccc(NC(=O)c2ccc(CN3CCN(C)CC3)cc2)cc1Nc1nc(-c2cccnc2)cs1 [Masitinib (AB1010), Masitinib] | -0.336 | -0.197 | -14.87 |  | -0.071 | -0.082 | -4.66
C[n+]1cc2c3c(ccc2c2ccc4cc5c(cc4c21)OCO5)OCO3 [Sanguinarine chloride] | -0.105 | -0.086 | -5.31 |  | -0.160 | -0.020 | -5.46
CONC(=O)Nc1ccc(-c2sc3c(c2CN(C)C)c(=O)n(-c2ccc(OC)nn2)c(=O)n3Cc2c(F)cccc2F)cc1 [Relugolix] | 0.366 | -0.004 | 10.15 |  | -0.169 | -0.015 | -5.58
CO[C@@]1(NC(=O)C(C(=O)O)c2ccc(O)cc2)C(=O)N2C(C(=O)O)=C(CSc3nnnn3C)CO[C@@H]21 (stereo partly shown) [Latamoxef sodium] | 0.128 | 0.049 | 4.99 |  | -0.050 | -0.037 | -2.62
CN(C)[C@@H]1C(O)=C(C(N)=O)C(=O)[C@@]2(O)C(O)=C3C(=O)c4c(O)cccc4[C@@](C)(O)[C@H]3[C@H](O)[C@@H]12 [Oxytetracycline (Terramycin), Oxytetracycline] | 0.175 | 0.122 | 8.34 |  | -0.019 | -0.057 | -2.29
CCOC(=O)[C@@H](N)Cc1ccc(-c2cc(O[C@H](c3ccc(Cl)cc3-n3ccc(C)n3)C(F)(F)F)nc(N)n2)cc1 [Telotristat etiprate (LX 1606 Hippurate), Telotristat etiprate] | -0.136 | -0.122 | -7.19 |  | 0.064 | 0.093 | 4.83
O=C(c1ccc(OCCN2CCCCC2)cc1)c1c(-c2ccc(O)cc2)sc2cc(O)ccc12 [Raloxifene] | -0.490 | -0.307 | -22.27 |  | -0.025 | -0.147 | -5.22
CC1(C)[C@@H](O[C@H]2O[C@H](C(=O)O)[C@@H](O)[C@H](O)[C@H]2O[C@@H]2O[C@H](C(=O)O)[C@@H](O)[C@H](O)[C@H]2O)CC[C@]2(C)[C@H]3C(=O)C=C4[C@@H]5C[C@@](C)(C(=O)O)CC[C@]5(C)CC[C@@]4(C)[C@]3(C)CC[C@@H]12.N.N [Diammonium glycyrrhizinate] | 0.077 | 0.080 | 4.42 |  | 0.022 | 0.017 | 1.22
CC1=NN(c2ccc(C)c(C)c2)C(=O)/C1=N\Nc1cccc(-c2cccc(C(=O)O)c2)c1O [Eltrombopag olamine] | 0.270 | 0.162 | 12.13 |  | -0.267 | -0.418 | -20.87
COc1ccc(CN(CCN(C)C)c2ncccn2)cc1 [Thonzylamine] | 0.012 | -0.449 | -12.17 |  | -0.034 | -0.382 | -12.66
CC1(C)S[C@@H]2[C@H](NC(=O)[C@H](N)c3ccccc3)C(=O)N2[C@H]1C(=O)O [Ampicillin sodium] | 0.184 | 0.161 | 9.70 |  | 0.003 | 0.007 | 0.34
CNC(=O)c1cc(Oc2ccc(NC(=O)Nc3ccc(Cl)c(C(F)(F)F)c3)c(F)c2)ccn1 [Regorafenib (BAY 73-4506), Regorafenib] | -0.029 | -0.026 | -1.50 |  | 0.099 | 0.102 | 6.17
